Results: PMC9848300, “Discovery of novel enasidenib analogues targeting inhibition of mutant isocitrate dehydrogenase 2 as antileukaemic agents” (Journal of Enzyme Inhibition and Medicinal Chemistry, 2023)
Where two headings read alike, the source gives them in different places.

What was measured:
Type in all cases: cell-based
SNB-75 = assay: NCI 60 antitumor screening (single dose / five doses); conditions: Homo sapiens
DU-145 = assay: as above; conditions: Homo sapiens
T-47D = assay: as above; conditions: Homo sapiens, T47D, read-out: Growth inhibition percentage (GI %)
NCI/ADR-RES = assay: as above; conditions: Homo sapiens, read-out: Growth inhibition percentage (GI %)
TK-10 = assay: NCI 60 antitumor screening (single dose); conditions: Homo sapiens; TK-10 (renal cancer), single dose 10 μM; read-out: Growth inhibition percentage (GI %)
In short: (§1)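 Read-out is percent growth (G%) of treated cancer cells relative to untreated, converted to percent inhibition as 100 − G%. Each compound was applied once at 10 μM across 60 human tumour lines under the NCI protocol.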

M14 = assay: NCI 60 antitumor screening (single dose); conditions: Homo sapiens; M14 (melanoma), single dose 10 μM; read-out: Growth inhibition percentage (GI %)
In short: as §1

A549/ATCC = assay: NCI 60 antitumor screening (single dose); conditions: Homo sapiens; A549/ATCC (non-small cell lung cancer), single dose 10 μM; read-out: Growth inhibition percentage (GI %)
In short: as §1

U251 = assay: NCI 60 antitumor screening (single dose); conditions: Homo sapiens, U-251; U251 (CNS cancer), single dose 10 μM; read-out: Growth inhibition percentage (GI %)
In short: (§2)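 NCI-60 one-dose screen. Dose: 10 μM. Lines: 60 human tumour lines, nine tissue types. Output: GI% = 100 − G%.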

MCF7 = assay: NCI 60 antitumor screening (single dose); conditions: Homo sapiens; MCF7 (breast cancer), single dose 10 μM; read-out: Growth inhibition percentage (GI %)
In short: as §1

HS 578T = assay: NCI 60 antitumor screening (single dose); conditions: Homo sapiens; HS 578T (breast cancer), single dose 10 μM; read-out: Growth inhibition percentage (GI %)
In short: as §1

OVCAR-8 = assay: NCI 60 antitumor screening (single dose); conditions: Homo sapiens; OVCAR-8 (ovarian cancer), single dose 10 μM; read-out: Growth inhibition percentage (GI %)
In short: as §1

HOP-62 = assay: NCI 60 antitumor screening (single dose); conditions: Homo sapiens; HOP-62 (non-small cell lung cancer), single dose 10 μM; read-out: Growth inhibition percentage (GI %)
In short: as §2

OVCAR-4 = assay: NCI 60 antitumor screening (single dose); conditions: Homo sapiens; OVCAR-4 (ovarian cancer), single dose 10 μM; read-out: Growth inhibition percentage (GI %)
In short: as §1

SNB-19 = assay: NCI 60 antitumor screening (single dose); conditions: Homo sapiens; SNB-19 (CNS cancer), single dose 10 μM; read-out: Growth inhibition percentage (GI %)
In short: as §1

CAKI-1 = assay: NCI 60 antitumor screening (single dose); conditions: Homo sapiens; CAKI-1 (renal cancer), single dose 10 μM; read-out: Growth inhibition percentage (GI %)
In short: as §1

OVCAR-5 = assay: NCI 60 antitumor screening (single dose); conditions: Homo sapiens; OVCAR-5 (ovarian cancer), single dose 10 μM; read-out: Growth inhibition percentage (GI %)
In short: as §2

PC-3 = assay: NCI 60 antitumor screening (single dose); conditions: Homo sapiens; PC-3 (prostate cancer), single dose 10 μM; read-out: Growth inhibition percentage (GI %)
In short: as §1

NCI-H522 = assay: NCI 60 antitumor screening (single dose); conditions: Homo sapiens; NCI-H522 (non-small cell lung cancer), single dose 10 μM; read-out: Growth inhibition percentage (GI %)
In short: as §2

NCI-H322M = assay: NCI 60 antitumor screening (single dose); conditions: Homo sapiens; NCI-H322M (non-small cell lung cancer), single dose 10 μM; read-out: Growth inhibition percentage (GI %)
In short: as §1

HCC-2998 = assay: NCI 60 antitumor screening (single dose); conditions: Homo sapiens; HCC-2998 (colon cancer), single dose 10 μM; read-out: Growth inhibition percentage (GI %)
In short: as §2

NCI-H226 = assay: NCI 60 antitumor screening (single dose); conditions: Homo sapiens; NCI-H226 (non-small cell lung cancer), single dose 10 μM; read-out: Growth inhibition percentage (GI %)
In short: as §1

SK-OV-3 = assay: NCI 60 antitumor screening (single dose); conditions: Homo sapiens; SK-OV-3 (ovarian cancer), single dose 10 μM; read-out: Growth inhibition percentage (GI %)
In short: as §2

KM 12 = assay: NCI 60 antitumor screening (single dose); conditions: Homo sapiens, KM12; KM 12 (colon cancer), single dose 10 μM; read-out: Growth inhibition percentage (GI %)
In short: as §1

NCI-H23 = assay: NCI 60 antitumor screening (single dose); conditions: Homo sapiens; NCI-H23 (non-small cell lung cancer), single dose 10 μM; read-out: Growth inhibition percentage (GI %)
In short: as §2

LOX IMVI = assay: NCI 60 antitumor screening (single dose / five doses); conditions: Homo sapiens, read-out: Growth inhibition percentage (GI %)
HCT-116 = assay: as above; conditions: Homo sapiens
BT-549 = assay: as above; conditions: Homo sapiens
[1] = SNB-75 (CNS cancer), single dose 10 μM, read-out: Growth inhibition percentage (GI %)
[2] = DU-145 (prostate cancer), single dose 10 μM, read-out: Growth inhibition percentage (GI %)
[3] = T-47D (breast cancer), single dose 10 μM
[4] = NCI/ADR-RES (ovarian cancer), single dose 10 μM
[5] = LOX IMVI (melanoma), single dose 10 μM
[6] = HCT-116 (colon cancer), single dose 10 μM, read-out: Growth inhibition percentage (GI %)
[7] = BT-549 (breast cancer), single dose 10 μM, read-out: Growth inhibition percentage (GI %)

In the case of Clc1cccc(/C=N/Nc2nc(N/N=C/c3cccc(Cl)c3Cl)nc(N3CCCCC3)n2)c1Cl [compound 7h, 2,4-Bis[(E)-2-[(2,3-Dichlorophenyl)methylidene]hydrazin-1-yl]-6-(piperidin-1-yl)-1,3,5-triazine], the inhibition at 10 µM (SNB-75; [1]) is reported as -4.05%, the inhibition at 10 µM (DU-145; [2]) is reported as 26.6% and the inhibition at 10 µM (T-47D; [3]) is reported as 51.7%. It also gave an inhibition at 10 µM (NCI/ADR-RES; [4]) of 32.6%, an inhibition at 10 µM (TK-10) of 8.78% and an inhibition at 10 µM (M14) of 31.2%. It also gave an inhibition at 10 µM (A549/ATCC) of 44.4%, an inhibition at 10 µM (U251) of 47.1% and an inhibition at 10 µM (MCF7) of 28.8%. The inhibition at 10 µM (HS 578T) was 15%, the inhibition at 10 µM (OVCAR-8) was 27.1% and the inhibition at 10 µM (HOP-62) was 1.81%. The inhibition at 10 µM (OVCAR-4) was 28.6%, the inhibition at 10 µM (SNB-19) was 4.59% and the inhibition at 10 µM (CAKI-1) was 15.9%. The inhibition at 10 µM (OVCAR-5) was 6.05%, the inhibition at 10 µM (PC-3) was 29.9% and the inhibition at 10 µM (NCI-H522) was 23.4%. It also gave an inhibition at 10 µM (NCI-H322M) of 10%, an inhibition at 10 µM (HCC-2998) of 2.64% and an inhibition at 10 µM (NCI-H226) of 2.51%. For the same compound, the inhibition at 10 µM (SK-OV-3) was -5.17%, the inhibition at 10 µM (KM 12) was 32.8% and the inhibition at 10 µM (NCI-H23) was 0.28%. The inhibition at 10 µM (LOX IMVI; [5]) was 31.7%, the inhibition at 10 µM (HCT-116; [6]) was 51.2% and the inhibition at 10 µM (BT-549; [7]) was 2.7%.
With O=[N+]([O-])c1cc(/C=N/Nc2nc(N/N=C/c3ccc(Cl)c([N+](=O)[O-])c3)nc(N3CCCCC3)n2)ccc1Cl [compound 7i, 2,4-Bis[(E)-2-[(4-Chloro-3-nitrophenyl)methylidene]hydrazin-1-yl]-6-(piperidin-1-yl)-1,3,5-triazine] the inhibition at 10 µM (SNB-75; SNB-75, read-out: Growth inhibition percentage (GI %)) was -36.1%, the inhibition at 10 µM (DU-145; DU-145, read-out: Growth inhibition percentage (GI %)) was 70.4% and the inhibition at 10 µM (T-47D) was 51.8%. For the same compound, the inhibition at 10 µM (NCI/ADR-RES; NCI/ADR-RES) was 69.8%, the inhibition at 10 µM (TK-10) was 6.2% and the inhibition at 10 µM (M14) was 7.7%. For the same compound, the inhibition at 10 µM (A549/ATCC) was -11.2%, the inhibition at 10 µM (U251) was 81.5% and the inhibition at 10 µM (MCF7) was 99.1%. It also gave an inhibition at 10 µM (HS 578T) of 46.2%, an inhibition at 10 µM (OVCAR-8) of 69% and an inhibition at 10 µM (HOP-62) of 56.3%. The inhibition at 10 µM (OVCAR-4) was 13.1%, the inhibition at 10 µM (SNB-19) was 27.4% and the inhibition at 10 µM (CAKI-1) was 27.6%. For the same compound, the inhibition at 10 µM (OVCAR-5) was -8.09%, the inhibition at 10 µM (PC-3) was 46.6% and the inhibition at 10 µM (NCI-H522) was 48.1%. The inhibition at 10 µM (NCI-H322M) was 28.8%, the inhibition at 10 µM (HCC-2998) was 32.6% and the inhibition at 10 µM (NCI-H226) was 38.6%. The inhibition at 10 µM (SK-OV-3) was 1.24%, the inhibition at 10 µM (KM 12) was 94.5% and the inhibition at 10 µM (NCI-H23) was 18.2%. The inhibition at 10 µM (LOX IMVI; LOX IMVI) was 34%, the inhibition at 10 µM (HCT-116; HCT-116, read-out: Growth inhibition percentage (GI %)) was 78% and the inhibition at 10 µM (BT-549; BT-549, read-out: Growth inhibition percentage (GI %)) was 2.15%.
Work on Oc1ccc(/C=N/Nc2nc(N/N=C/c3ccc(O)c(O)c3)nc(N3CCCCC3)n2)cc1O [compound 7j, 4-[(1e)-(2-{4-[(E)-2-[(3,4-Dihydroxyphenyl)methylidene]hydrazin-1-yl]-6-(piperidin-1-yl)-1,3,5-triazin-2-yl}hydrazin-1-ylidene)methyl]benzene-1,2-diol] yielded an inhibition at 10 µM (SNB-75; [1]) of -4%, an inhibition at 10 µM (DU-145; [2]) of 0.25% and an inhibition at 10 µM (T-47D; [3]) of 16.9%. The inhibition at 10 µM (NCI/ADR-RES; [4]) was -3.16%, the inhibition at 10 µM (TK-10) was -3.52% and the inhibition at 10 µM (M14) was -3.18%. It also gave an inhibition at 10 µM (A549/ATCC) of -0.07%, an inhibition at 10 µM (U251) of 9.07% and an inhibition at 10 µM (MCF7) of 4.27%. For the same compound, the inhibition at 10 µM (HS 578T) was -6.08%, the inhibition at 10 µM (OVCAR-8) was 1.94% and the inhibition at 10 µM (HOP-62) was -10.5%. For the same compound, the inhibition at 10 µM (OVCAR-4) was -0.74%, the inhibition at 10 µM (SNB-19) was 13.7% and the inhibition at 10 µM (CAKI-1) was 13.4%. The inhibition at 10 µM (OVCAR-5) was -13.1%, the inhibition at 10 µM (PC-3) was 9.42% and the inhibition at 10 µM (NCI-H522) was 6.61%. It also gave an inhibition at 10 µM (NCI-H322M) of -2.3%, an inhibition at 10 µM (HCC-2998) of -5% and an inhibition at 10 µM (NCI-H226) of 4.47%. For the same compound, the inhibition at 10 µM (SK-OV-3) was -24.8%, the inhibition at 10 µM (KM 12) was -0.29% and the inhibition at 10 µM (NCI-H23) was 0.5%. For the same compound, the inhibition at 10 µM (LOX IMVI; [5]) was 6.65%, the inhibition at 10 µM (HCT-116; [6]) was 23.7% and the inhibition at 10 µM (BT-549; [7]) was 1.47%.
With C(=N\Nc1nc(N/N=C/c2ccc3c(c2)OCO3)nc(N2CCCCC2)n1)/c1ccc2c(c1)OCO2 [compound 7k, 2,4-Bis[(E)-2-(2H-1,3-Benzodioxol-5-ylmethylidene)hydrazin-1-yl]-6-(piperidin-1-yl)-1,3,5-triazine] the inhibition at 10 µM (SNB-75; [1]) was -13.1%, the inhibition at 10 µM (DU-145; [2]) was 0.19% and the inhibition at 10 µM (T-47D; [3]) was 12.8%. The inhibition at 10 µM (NCI/ADR-RES; [4]) was 14.5%, the inhibition at 10 µM (TK-10) was -21% and the inhibition at 10 µM (M14) was 2.72%. It also gave an inhibition at 10 µM (A549/ATCC) of 8.56%, an inhibition at 10 µM (U251) of 18.6% and an inhibition at 10 µM (MCF7) of 45.2%. The inhibition at 10 µM (HS 578T) was -4.09%, the inhibition at 10 µM (OVCAR-8) was 9.89% and the inhibition at 10 µM (HOP-62) was -22.5%. The inhibition at 10 µM (OVCAR-4) was -9.55%, the inhibition at 10 µM (SNB-19) was 19.7% and the inhibition at 10 µM (CAKI-1) was 1.07%. It also gave an inhibition at 10 µM (OVCAR-5) of -18.2%, an inhibition at 10 µM (PC-3) of 26.4% and an inhibition at 10 µM (NCI-H522) of 8.07%. For the same compound, the inhibition at 10 µM (NCI-H322M) was 1.53%, the inhibition at 10 µM (HCC-2998) was 16.2% and the inhibition at 10 µM (NCI-H226) was -0.61%. For the same compound, the inhibition at 10 µM (SK-OV-3) was -39.5%, the inhibition at 10 µM (KM 12) was 13.8% and the inhibition at 10 µM (NCI-H23) was -1.44%. The inhibition at 10 µM (LOX IMVI; [5]) was 52.1%, the inhibition at 10 µM (HCT-116; [6]) was 52.1% and the inhibition at 10 µM (BT-549; [7]) was -21.9%.
